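48-hour exposure; five concentrations; linearly interpolated endpoints. TGI: concentration producing complete growth inhibition.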
Assays:
Test in all cases: growth of human tumour cells (NCI), 48 h
MALME-3M melanoma = system: MALME-3M melanoma
SNB-19 CNS = system: SNB-19 CNS
A498 renal = system: A498 renal
NCI-H23 lung = system: NCI-H23 lung
MDA-N = system: MDA-N
T-47D breast = system: T-47D breast
ACHN renal = system: ACHN renal
IGROV1 ovarian = system: IGROV1 ovarian
HOP-62 NSCLC = system: HOP-62 NSCLC
SF-539 CNS = system: SF-539 CNS
SW-620 colon = system: SW-620 colon
PC-3 prostate = system: PC-3 prostate
MDA-MB-435 = system: MDA-MB-435
HL-60(TB) leukemia = system: HL-60(TB) leukemia
OVCAR-3 ovarian = system: OVCAR-3 ovarian
DU-145 prostate = system: DU-145 prostate
A549 NSCLC = system: A549 NSCLC
SR leukemia = system: SR leukemia
HCC-2998 colon = system: HCC-2998 colon
CAKI-1 renal = system: CAKI-1 renal
BT-549 breast = system: BT-549 breast
MOLT-4 leukemia = system: MOLT-4 leukemia
K-562 leukemia = system: K-562 leukemia
COLO 205 colon = system: COLO 205 colon
OVCAR-5 ovarian = system: OVCAR-5 ovarian
CCRF-CEM leukemia = system: CCRF-CEM leukemia
OVCAR-4 ovarian = system: OVCAR-4 ovarian
UACC-62 melanoma = system: UACC-62 melanoma
SK-MEL-2 melanoma = system: SK-MEL-2 melanoma
NCI-H460 lung = system: NCI-H460 lung
SK-MEL-28 melanoma = system: SK-MEL-28 melanoma
SK-OV-3 ovarian = system: SK-OV-3 ovarian
SK-MEL-5 melanoma = system: SK-MEL-5 melanoma
KM12 colon = system: KM12 colon
UACC-257 melanoma = system: UACC-257 melanoma
U251 CNS = system: U251 CNS
SNB-75 CNS = system: SNB-75 CNS
HOP-92 NSCLC = system: HOP-92 NSCLC
SF-268 CNS = system: SF-268 CNS
SN12C renal = system: SN12C renal
OVCAR-8 ovarian = system: OVCAR-8 ovarian
SF-295 CNS = system: SF-295 CNS
MDA-MB-231 breast = system: MDA-MB-231 breast
NCI-H522 lung = system: NCI-H522 lung
HCT-116 colon = system: HCT-116 colon
HCT-15 colon = system: HCT-15 colon
RPMI-8226 leukemia = system: RPMI-8226 leukemia
LOX IMVI melanoma = system: LOX IMVI melanoma
RXF 393 renal = system: RXF 393 renal
NCI/ADR-RES ovarian = system: NCI/ADR-RES ovarian
EKVX NSCLC = system: EKVX NSCLC
M14 melanoma = system: M14 melanoma
HS 578T breast = system: HS 578T breast
UO-31 renal = system: UO-31 renal
786-0 renal = system: 786-0 renal
HT29 colon = system: HT29 colon
NCI-H226 lung = system: NCI-H226 lung
TK-10 renal = system: TK-10 renal
MCF7 breast = system: MCF7 breast

SMILES: CNC(=S)N/N=C(\C)c1cc(OC)ccc1O
- TGI (MALME-3M melanoma): > 100 µM
- TGI (SNB-19 CNS): > 100 µM
- TGI (A498 renal): > 100 µM
- TGI (NCI-H23 lung): > 100 µM
- TGI (MDA-N): > 100 µM
- TGI (T-47D breast): > 100 µM
- TGI (ACHN renal): > 100 µM
- TGI (IGROV1 ovarian): > 100 µM
- TGI (HOP-62 NSCLC): > 100 µM
- TGI (SF-539 CNS): > 100 µM
- TGI (SW-620 colon): > 100 µM
- TGI (PC-3 prostate): > 100 µM
- TGI (MDA-MB-435): > 100 µM
- TGI (HL-60(TB) leukemia): > 100 µM
- TGI (OVCAR-3 ovarian): > 100 µM
- TGI (DU-145 prostate): > 100 µM
- TGI (A549 NSCLC): > 100 µM
- TGI (SR leukemia): > 100 µM
- TGI (HCC-2998 colon): > 100 µM
- TGI (CAKI-1 renal): > 100 µM
- TGI (BT-549 breast): > 100 µM
- TGI (MOLT-4 leukemia): > 100000 nM
- TGI (K-562 leukemia): > 100 µM
- TGI (COLO 205 colon): > 100000 nM
- TGI (OVCAR-5 ovarian): > 100 µM
- TGI (CCRF-CEM leukemia): > 100 µM
- TGI (OVCAR-4 ovarian): > 100 µM
- TGI (UACC-62 melanoma): > 100 µM
- TGI (SK-MEL-2 melanoma): > 100 µM
- TGI (NCI-H460 lung): > 100 µM
- TGI (SK-MEL-28 melanoma): > 100 µM
- TGI (SK-OV-3 ovarian): > 100 µM
- TGI (SK-MEL-5 melanoma): > 100 µM
- TGI (KM12 colon): > 100 µM
- TGI (UACC-257 melanoma): > 100 µM
- TGI (U251 CNS): > 100 µM
- TGI (SNB-75 CNS): > 100 µM
- TGI (HOP-92 NSCLC): > 100 µM
- TGI (SF-268 CNS): > 100 µM
- TGI (SN12C renal): > 100 µM
- TGI (OVCAR-8 ovarian): > 100 µM
- TGI (SF-295 CNS): > 100 µM
- TGI (MDA-MB-231 breast): > 100 µM
- TGI (NCI-H522 lung): > 100 µM
- TGI (HCT-116 colon): > 100 µM
- TGI (HCT-15 colon): > 100 µM
- TGI (RPMI-8226 leukemia): > 100 µM
- TGI (LOX IMVI melanoma): > 100 µM
- TGI (RXF 393 renal): > 100 µM
- TGI (NCI/ADR-RES ovarian): > 100 µM
- TGI (EKVX NSCLC): > 100 µM
- TGI (M14 melanoma): > 100 µM
- TGI (HS 578T breast): > 100 µM
- TGI (UO-31 renal): > 100 µM
- TGI (786-0 renal): > 100 µM

SMILES: CCOc1ccc(NC(=O)C(=O)C2C(=O)Nc3ccccc3S2=O)cc1 (centres undefined)
- TGI (MALME-3M melanoma): > 100 µM
- TGI (A498 renal): > 100 µM
- TGI (NCI-H23 lung): > 100 µM
- TGI (MDA-N): > 100 µM
- TGI (T-47D breast): > 100 µM
- TGI (ACHN renal): > 100 µM
- TGI (IGROV1 ovarian): > 100 µM
- TGI (HOP-62 NSCLC): > 100 µM
- TGI (SF-539 CNS): > 100 µM
- TGI (SW-620 colon): > 100 µM
- TGI (PC-3 prostate): > 100 µM
- TGI (MDA-MB-435): > 100 µM
- TGI (HL-60(TB) leukemia): > 100 µM
- TGI (OVCAR-3 ovarian): > 100 µM
- TGI (A549 NSCLC): > 100 µM
- TGI (CAKI-1 renal): > 100 µM
- TGI (BT-549 breast): > 100 µM
- TGI (OVCAR-5 ovarian): > 100 µM
- TGI (CCRF-CEM leukemia): > 100 µM
- TGI (OVCAR-4 ovarian): > 100 µM
- TGI (UACC-62 melanoma): > 100 µM
- TGI (SK-MEL-2 melanoma): > 100 µM
- TGI (NCI-H460 lung): > 100 µM
- TGI (SK-MEL-28 melanoma): > 100 µM
- TGI (SK-OV-3 ovarian): > 100 µM
- TGI (SK-MEL-5 melanoma): > 100 µM
- TGI (KM12 colon): > 100 µM
- TGI (UACC-257 melanoma): > 100 µM
- TGI (U251 CNS): > 100 µM
- TGI (SNB-75 CNS): > 100 µM
- TGI (HOP-92 NSCLC): > 100 µM
- TGI (SF-268 CNS): > 100 µM
- TGI (SN12C renal): > 100 µM
- TGI (OVCAR-8 ovarian): > 100 µM
- TGI (SF-295 CNS): > 100 µM
- TGI (MDA-MB-231 breast): > 100 µM
- TGI (NCI-H522 lung): > 100 µM
- TGI (HCT-116 colon): > 100 µM
- TGI (HCT-15 colon): > 100 µM
- TGI (HT29 colon): > 100 µM
- TGI (NCI-H226 lung): > 100 µM
- TGI (RPMI-8226 leukemia): > 100 µM
- TGI (TK-10 renal): > 100 µM
- TGI (LOX IMVI melanoma): > 100 µM
- TGI (RXF 393 renal): > 100 µM
- TGI (NCI/ADR-RES ovarian): > 100 µM
- TGI (EKVX NSCLC): > 100 µM
- TGI (M14 melanoma): > 100 µM
- TGI (HS 578T breast): > 100 µM
- TGI (MCF7 breast): > 100 µM
- TGI (UO-31 renal): > 100 µM
- TGI (786-0 renal): > 100 µM

SMILES: O=C1Cc2c([nH]c3ccc([N+](=O)[O-])cc23)-c2ccccc2N1
- TGI (MALME-3M melanoma): > 100 µM
- TGI (SNB-19 CNS): > 32.7 µM
- TGI (A498 renal): > 19.7 µM
- TGI (NCI-H23 lung): 6.37 µM
- TGI (MDA-N): 8.44 µM
- TGI (T-47D breast): > 100 µM
- TGI (ACHN renal): > 18.2 µM
- TGI (IGROV1 ovarian): > 100 µM
- TGI (HOP-62 NSCLC): 18.8 µM
- TGI (SF-539 CNS): 16.8 µM
- TGI (SW-620 colon): > 58.5 µM
- TGI (PC-3 prostate): > 100 µM
- TGI (MDA-MB-435): > 100 µM
- TGI (HL-60(TB) leukemia): 0.752 µM
- TGI (A549 NSCLC): > 56.8 µM
- TGI (HCC-2998 colon): > 49.1 µM
- TGI (CAKI-1 renal): > 95.7 µM
- TGI (BT-549 breast): > 100 µM
- TGI (MOLT-4 leukemia): 1440 nM
- TGI (K-562 leukemia): 9.23 µM
- TGI (COLO 205 colon): 1160 nM
- TGI (OVCAR-5 ovarian): 0.77 µM
- TGI (CCRF-CEM leukemia): 0.325 µM
- TGI (OVCAR-4 ovarian): 6.11 µM
- TGI (SK-MEL-2 melanoma): 5.62 µM
- TGI (NCI-H460 lung): > 63 µM
- TGI (SK-OV-3 ovarian): > 100 µM
- TGI (SK-MEL-5 melanoma): 2.02 µM
- TGI (KM12 colon): > 55.1 µM
- TGI (UACC-257 melanoma): > 62.8 µM
- TGI (U251 CNS): > 83.1 µM
- TGI (HOP-92 NSCLC): > 100 µM
- TGI (SF-268 CNS): > 94.6 µM
- TGI (SN12C renal): 19.1 µM
- TGI (OVCAR-8 ovarian): > 100 µM
- TGI (SF-295 CNS): > 100 µM
- TGI (MDA-MB-231 breast): > 100 µM
- TGI (NCI-H522 lung): > 26.2 µM
- TGI (HCT-116 colon): 1.96 µM
- TGI (HCT-15 colon): > 100 µM
- TGI (HT29 colon): 4.46 µM
- TGI (NCI-H226 lung): 18.2 µM
- TGI (RPMI-8226 leukemia): 2.98 µM
- TGI (TK-10 renal): > 37.9 µM
- TGI (LOX IMVI melanoma): > 100 µM
- TGI (RXF 393 renal): 14.6 µM
- TGI (NCI/ADR-RES ovarian): > 84 µM
- TGI (EKVX NSCLC): 2.38 µM
- TGI (M14 melanoma): > 30 µM
- TGI (HS 578T breast): > 21.2 µM
- TGI (MCF7 breast): > 100 µM
- TGI (786-0 renal): > 100 µM

— PubChem BioAssay (NCI)
